# Experimental data published in patent publication US8101352B2, “Detection of ESR1 amplification in breast cancer” (Universitatsklinikum Hamburg-Eppendorf, priority 2006, dated 2012).
# Test system: breast cancer patients
# Assay: Prognostic relevance of ESR1 alterations in breast cancer treated with Tamoxifen (tissue microarray FISH/IHC with survival analysis)
# Format: in vivo, human
# Description: Contingency table analysis and Chi-square tests were used to study the relationship between histologic tumor type, grade, stage and gene amplification. Survival curves were plotted according to Kaplan-Meier. A log rank test was applied to examine the relationship between gene amplifications and patient survival.
# 2.1 The general results obtained by CGH were verified by fluorescence in situ hybridization (FISH) using existing tissue microarrays. A breast cancer Prognosis Tissue Microarray containing more than 2517 breast tissues was analyzed. […]
# 2.3 The TMA sections were treated according to the Paraffin Pretreatment Reagent Kit protocol (Vysis, Downers Grove, Ill.) before hybridization. […] In a second more refined analysis FISH signal numbers of the ESR1 gene and centromere 6 were counted in each tissue spot. […]
# 3.1 Immunohistochemical detection of the estrogen receptor alpha protein was performed using the above described TMAs and antibody NCL-L-ER-6F11 as a primary antibody (Novocastra, Newcastle, UK). […] In brief, intensity of the estrogen receptor staining was recorded in a 4-step scale (0-3) and the fraction of ER positive tumor cells in a 5-step (1-5) scale. […]
structure (smiles),measurement,setting,value
CC/C(=C(\c1ccccc1)c1ccc(OCCN(C)C)cc1)c1ccccc1 [Tamoxifen],prognosis of Tamoxifen treated patients with ESR1 amplification,"Tamoxifen monotherapy after surgery, ESR1 amplified versus ER positive by IHC without ESR1 amplification, p<0.0001 (FIG. 4)",significantly better
same,overall survival of patients with ESR1-amplified tumors under anti-estrogen therapy with Tamoxifen,compared to patients with tumors not exhibiting ESR1 amplification (FIG. 4),significantly increased
